The text below walks through data of patent publication US20240034729A9, “HETEROCYCLIC COMPOUND, INTERMEDIATE, PREPARATION METHOD THEREFOR AND APPLICATION THEREOF” (WUHAN LL SCIENCE AND TECHNOLOGY DEVELOPMENT CO., LTD., priority 2018, published 2024).

Read-outs that look alike come from different tables or passages of the source.

Data set [1] has as its system Male Dunkin Hartley guinea pigs. The data set can be described thus: Citric acid only cough model. It counts as in vivo, guinea pig. The arrangement: Mean cough latency: unit not given beside the values. The note with it: for Number of coughs and cough latency (in words): compared with the blank vehicle or the condition before administration; for inhibition in vivo at 30 mg/kg: Cavia porcellus; for Mean number of coughs: 17.5% citric acid. The procedure:
Male Dunkin Hartley guinea pigs (300-350 g) were placed in an animal atomization box, and then the door of the atomization box was closed while the ultrasonic atomizer (Guangdong Yuehua) was turned on. 17.5% citric acid gas was introduced into the atomization box at a maximum atomization rate (about 2 mL/min) for 20 s, and coughs of the animals within 10 min were continuously observed from the time of the start of atomization. During the 10-min observation, coughs of the animals were counted manually, and the number of coughs were judged according to cough postures of the guinea pigs, such as abdominal twitching, mouth opening, and head inclining downward abruptly. The number of coughs during the first 5 min and that during 10 min were recorded, and the cough latency of the guinea pigs, namely the time from the initiation of citric acid induction to the appearance of the first cough, was also recorded.

The subject of the next data set is Male SD rats. The data set can be described thus: Two-bottle dysgeusia test (quinine water vs normal water). It counts as in vivo, rat. The note with it: 20 mg/kg; for Ratio of quinine/water intake (in words): compared with the blank vehicle; for Quinine/tap water* 100%: Table 8, rats, single intraperitoneal injection, water intake within 15 min, 0.3 mM quinine. The procedure: All drinking water bottles were removed out 20 h before the start of the formal experiment, and all the animals were deprived of water until the start of the experiment. In the experiment, all the animals were randomly grouped and then subjected to a single intraperitoneal injection of a test compound or a vehicle before water was resupplied. The administration time was determined according to the Tmax of the test compound. Then the animals were placed in separate cages, and two bottles of drinking water (one bottle of normal drinking water and one bottle of 0.3 mM quinine water) were provided.

Data set [2] has as its target hP2X3 (human purinergic P2X receptor subtype 3) (Homo sapiens (Human), UniProt P56373). Description: FLIPR calcium assay, hP2X3 expressed in HEK293 cells. It counts as cell-based. The following applies: read-out: P2X3 IC50.
A short description of data set [3]: In vitro metabolic stability, guinea pig liver microsome. It counts as in vitro ADME. The following applies: liver microsomes, 1 mg/mL liver microsome protein, 37° C., NA = essentially not metabolized, read-out: T1/2 in guinea pig liver microsome. The procedure: (§1) The in vitro metabolic stability of the compounds disclosed herein was determined through incubation of liver microsomes of various species. A proper amount of test compound was added into a liver microsome reaction system (1 mg/mL liver microsome protein, 25 U/mL glucose-6 phosphate dehydrogenase, 1 mM NADP, 6 mM D-glucose 6-phosphate and 5 mM MgCl2), and then the mixture was incubated in a water bath kettle at 37° C. to start the reaction. At each time point, 100 μL of the reaction mixture was added into a centrifuge tube containing 400 μL of internal standard working solution (containing a 200 ng/mL solution of dexamethasone, diclofenac, tolbutamide and labetalol in acetonitrile) precooled at 0° C. so as to terminate the reaction, and the mixture was then centrifuged at 10,000 g for 10 min at 4° C. The supernatant was collected for LC-MS assay so as to obtain the values of in vitro metabolic half-life of the test compounds in liver microsomes of various species.

The nature of data set [4]: In vitro metabolic stability, rat liver microsome. It counts as in vitro ADME. The following applies: liver microsomes, 1 mg/mL liver microsome protein, 37° C., NA = essentially not metabolized, read-out: T1/2 in rat liver microsome. The procedure: as §1, with “A proper amount of test compound was added into a liver microsome reaction system (1 mg/mL liver microsome protein, 25 U/mL glucose-6 phosphate dehydrogenase, 1 mM NADP, 6 mM D-glucose 6-phosphate and 5 mM MgCl2), and then the mixture was incubated in a water bath kettle at 37° C. to start the reaction.” left out
Background: Liver microsomes are vesicles of endoplasmic reticulum, rich in cytochrome P450 enzymes.

Data set [5] has as its target hP2X2/3 (heterodimeric receptors formed by human purinergic P2X receptors subtype 2 and subtype 3) (Homo sapiens (Human), UniProt P56373+Q9UBL9). The data set can be described thus: FLIPR calcium assay, hP2X2/3 expressed in HEK293 cells (P2X2/3 receptor selectivity). It counts as cell-based. The following applies: for IC50: HEK293 cells expressing hP2X2/3, agonist BZ-ATP 5 μM, unit inferred.

Data set [6] in a line: In vitro metabolic stability, human liver microsome. It counts as in vitro ADME. The note with it: liver microsomes, 1 mg/mL liver microsome protein, 37° C., NA = essentially not metabolized, read-out: T1/2 in human liver microsome. The procedure: as §1, with “A proper amount of test compound was added into a liver microsome reaction system (1 mg/mL liver microsome protein, 25 U/mL glucose-6 phosphate dehydrogenase, 1 mM NADP, 6 mM D-glucose 6-phosphate and 5 mM MgCl2), and then the mixture was incubated in a water bath kettle at 37° C. to start the reaction.” left out

Data set [7] is described as follows: In vitro cytotoxicity assay, CCK-8 method. It counts as cell-based. The note with it: human, HepG2 cells. The procedure: In vitro cytotoxicity assay for the compounds disclosed herein was performed in HepG2 cells using the CCK-8 method. HepG2 cells (Beina Bio) in the logarithmic growth phase were collected, the concentration of cell suspension was adjusted, and then the cells were plated on a 96-well cell culture plate at 50,000 cells/well. The cells were then incubated overnight in a cell incubator of 5% […] at 37° C., and after 80-90% cell confluence was achieved, test compounds or vehicle (DMSO) at various concentration gradients were added after medium change. The plate was incubated in a cell incubator of 5% […] at 37° C. for 48 h. After the treatment, the medium in the plate was discarded. The plate was washed twice with PBS, added with CCK-8 working solution (Beyotime) at 100 μL per well, and then incubated at 37° C. for 1.5 h away from light. Absorbance at OD450nm was measured for each well on a microplate reader, and CC50 value of each compound was analyzed and calculated.
On the technique in general: Tetrazolium dyes change colour on reduction, which living cells bring about.

Setting [8] is: 30 mg/kg, read-out: Cough inhibition rate Vs Baseline (%).
[9] abbreviates: 30 mg/kg, read-out: Cough inhibition rate Vs Vehicle (%).
Where [10] appears, read: before administration (baseline of the group).

hP2X2/3 (heterodimeric receptors formed by human purinergic P2X receptors subtype 2 and subtype 3), sequence (P56373 whole entry): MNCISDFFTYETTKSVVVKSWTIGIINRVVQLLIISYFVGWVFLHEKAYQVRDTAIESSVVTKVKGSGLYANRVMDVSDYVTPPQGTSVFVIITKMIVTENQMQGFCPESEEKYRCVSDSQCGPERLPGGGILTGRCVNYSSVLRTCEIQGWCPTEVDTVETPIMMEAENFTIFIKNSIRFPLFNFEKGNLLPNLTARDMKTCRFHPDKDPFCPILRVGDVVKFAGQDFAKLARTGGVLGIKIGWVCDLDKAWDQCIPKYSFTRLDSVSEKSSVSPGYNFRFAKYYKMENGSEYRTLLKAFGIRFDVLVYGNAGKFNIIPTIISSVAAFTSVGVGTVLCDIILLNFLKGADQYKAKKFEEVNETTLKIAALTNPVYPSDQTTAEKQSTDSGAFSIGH
hP2X2/3 (heterodimeric receptors formed by human purinergic P2X receptors subtype 2 and subtype 3), sequence (Q9UBL9 whole entry): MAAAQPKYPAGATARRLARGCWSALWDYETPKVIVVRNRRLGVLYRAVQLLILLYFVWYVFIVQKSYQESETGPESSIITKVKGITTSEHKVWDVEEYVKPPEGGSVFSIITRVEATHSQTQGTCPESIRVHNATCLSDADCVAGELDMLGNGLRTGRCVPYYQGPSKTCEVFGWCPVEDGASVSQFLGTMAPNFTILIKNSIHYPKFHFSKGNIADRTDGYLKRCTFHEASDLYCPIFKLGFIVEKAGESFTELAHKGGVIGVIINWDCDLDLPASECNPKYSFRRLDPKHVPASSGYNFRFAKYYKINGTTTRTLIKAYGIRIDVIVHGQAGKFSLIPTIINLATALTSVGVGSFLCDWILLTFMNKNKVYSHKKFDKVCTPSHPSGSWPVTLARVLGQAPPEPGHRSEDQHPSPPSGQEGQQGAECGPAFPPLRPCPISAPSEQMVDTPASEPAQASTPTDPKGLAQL
hP2X3 (human purinergic P2X receptor subtype 3), sequence (P56373 whole entry): as the sequence (P56373 whole entry) above

In the case of `CNC(=O)c1cc(F)c(-c2oc3cc(C)ccc3c2C[C@H]2CN(C(=O)OC)CCO2)c(F)c1` [Compound 53, methyl (S)-2-((2-(2,6-difluoro-4-(methylcarbamoyl)phenyl)-6-methylbenzofuran-3-yl)methyl)morpholine-4-carboxylate], the “Number of coughs and cough latency (in words)” value in data set [1] (30 mg/kg) was “can effectively reduce the number of coughs and prolong the cough latency”. The inhibition in vivo at 30 mg/kg in data set [1] (setting [8]) was 51.7%. Besides, the inhibition in vivo at 30 mg/kg in data set [1] (setting [9]) worked out at 47.7%. Besides, in the data set with Male SD rats, the “Ratio of quinine/water intake (in words)” value is given as “almost unaffected” and the “Quinine/tap water* 100%” value stood at 7.65%. The IC50 in data set [2] is less than 0.01 µM.
For `COC(=O)N1CCO[C@@H](Cc2c(-c3cnc(-n4cccn4)cc3C)nc3cc(C)ccn23)C1` [Compound 168, methyl (S)-2-((7-methyl-2-(4-methyl-6-(1H-pyrazol-1-yl)pyridin-3-yl)imidazo[1,2-a]pyridin-3-yl)methyl)morpholine-4-carboxylate], the half-life amounted to 29.2 min in data set [3], 57.6 min in data set [4] and 523 min in data set [6]. Besides, the Folds of selectivity result in data set [5] is “A (key: A: folds of selectivity >1000; B: 200< folds of selectivity ≤1000; C: folds of selectivity ≤200)”. Further, the values for the IC50 in data set [5] and in data set [2] were greater than 60 µM and 0.01 to 0.05 µM, respectively. Besides, in data set [7], the half-maximal cytotoxic concentration (CC50) at 48 h is greater than 100 µM.
On to `CC(=O)N1CCO[C@@H](Cc2c(-c3c(F)cc(-c4nnc[nH]4)cc3F)nc3cc(C)ccn23)C1` [Compound 165], for which the Folds of selectivity entry in data set [5] is recorded as “A (key: A: folds of selectivity >1000; B: 200< folds of selectivity ≤1000; C: folds of selectivity ≤200)”. Also, the concentration for half-maximal inhibition (IC50) is greater than 60 µM in data set [5] and less than 0.01 µM in data set [2]. Further, the “Number of coughs and cough latency (in words)” value in data set [1] (30 mg/kg) was “can effectively reduce the number of coughs and prolong the cough latency”. In addition, the values for the inhibition in vivo at 30 mg/kg in data set [1] (setting [8]) and in data set [1] (setting [9]) were 54.5% and 53.6%, respectively. Moreover, the “Ratio of quinine/water intake (in words)” value in the data set with Male SD rats is on record as “almost unaffected”. Moreover, the “Quinine/tap water* 100%” value with Male SD rats was found to be 3.90%. The CC50 at 48 h in data set [7] is greater than 100 µM.
Consider `COC(=O)N1CCO[C@@H](Cc2c(-c3c(F)cc(-c4ccc[nH]4)cc3F)nc3cc(C)ccn23)C1` [Compound 4, methyl (S)-2-((2-(2,6-difluoro-4-(1H-pyrrol-2-yl)phenyl)-7-methylimidazo[1,2-a]pyridin-3-yl)methyl)morpholine-4-carboxylate], for which the figures for the half-life in data set [3], in data set [4] and in data set [6] were 4.38 min, 4.91 min and 61 min, respectively. Also, in data set [5], the Folds of selectivity result is listed as “A (key: A: folds of selectivity >1000; B: 200< folds of selectivity ≤1000; C: folds of selectivity ≤200)”. Besides, the 50% inhibitory concentration (IC50) was 14.3 µM in data set [5] and less than 0.01 µM in data set [2]. This compound also gave a CC50 at 48 h in data set [7] of 13.2 µM.
`CNC(=O)c1cc(F)c(-c2nc3cc(C)ccn3c2C[C@H]2CN(C(=O)OC)CCO2)c(F)c1` [Positive compound 1, methyl (S)-2-((2-(2,6-difluoro-4-(4-methylcarbamoyl)phenyl)-7-methylimidazo[1,2-a]pyridin-3-yl)methyl)morpholine-4-carboxylate, reference compound]: the values for the half-life in data set [3], in data set [4] and in data set [6] were 112 min, 53.4 min and 1450 min, respectively. The Folds of selectivity in data set [5] is greater than 5217. For the same compound, the “Cough inhibition rate Vs Baseline (%)” value in data set [1] (30 mg/kg) was 47.0%. Further, the “Cough inhibition rate Vs Vehicle (%)” value in data set [1] (30 mg/kg) was 42.6%. Also, the Mean cough latency in data set [1] (after administration, 30 mg/kg) is 226.75; in data set [1] (setting [10]) it was 80.13. The “Mean number of coughs” value in data set [1] (after administration, 30 mg/kg) was 9.88; in data set [1] (setting [10]) it was 18.63. Also, the CC50 at 48 h in data set [7] turned out to be 128 µM.
`CCC(=O)c1ccn(-c2cc(F)c(-c3nc4cc(C)ccn4c3C[C@H]3CN(C(=O)OC)CCO3)c(F)c2)n1` [Compound 164, methyl (S)-2-((2-(2,6-difluoro-4-(3-propionyl-1H-pyrazol-1-yl)phenyl)-7-methylimidazo[1,2-a]pyridin-3-yl)methyl) morpholine-4-carboxylate]: in data set [5], the Folds of selectivity entry is reported as “A (key: A: folds of selectivity >1000; B: 200< folds of selectivity ≤1000; C: folds of selectivity ≤200)” and the IC50 is greater than 60 µM. Besides, the inhibition in vivo at 30 mg/kg in data set [1] (setting [8]) came out at 67.2%. For the same compound, in data set [1] (setting [9]), the inhibition in vivo at 30 mg/kg was 65.2%. For the same compound, in the data set on Male SD rats, the “Ratio of quinine/water intake (in words)” value is listed as “almost unaffected” and the “Quinine/tap water* 100%” value was 6.69%. The compound further registered a half-maximal cytotoxic concentration (CC50) at 48 h in data set [7] greater than 100 µM.
Take `COC(=O)N1CCO[C@@H](Cc2c(-c3c(F)cc(-c4cc[nH]n4)cc3F)nc3cc(C)ccn23)C1` [Compound 15, methyl (S)-2-((2-(2,6-difluoro-4-(1H-pyrazol-3-yl)phenyl)-7-methylimidazo[1,2-a]pyridin-3-yl)methyl)morpholine-4-carboxylate]: the half-life is 16.5 min in data set [3], 25.4 min in data set [4] and 191 min in data set [6]. In addition, the Folds of selectivity result in data set [5] is “B (key: A: folds of selectivity >1000; B: 200< folds of selectivity ≤1000; C: folds of selectivity ≤200)”. For the same compound, the half-maximal inhibitory concentration (IC50) was 21.6 µM in data set [5] and less than 0.01 µM in data set [2]. The compound also came in with a CC50 at 48 h in data set [7] of 52.6 µM.
`COC(=O)N1CCO[C@@H](Cc2c(-c3c(F)cc(-c4ccccn4)cc3F)nc3cc(C)ccn23)C1` [Compound 17, methyl (S)-2-((2-(2,6-difluoro-4-(pyridin-2-yl)phenyl)-7-methylimidazo[1,2-a]pyridin-3-yl)methyl)morpholine-4-carboxylate]: the results for the half-life in data set [3], in data set [4] and in data set [6] were 8.61 min, 19.4 min and 998 min, respectively. Moreover, the Folds of selectivity result in data set [5] is “B (key: A: folds of selectivity >1000; B: 200< folds of selectivity ≤1000; C: folds of selectivity ≤200)”. In addition, the values for the IC50 in data set [5] and in data set [2] were 29.8 µM and 0.01 to 0.05 µM, respectively. Also, the midpoint of cytotoxicity in data set [7], the CC50 at 48 h, lay at 51 µM.

The term IC50 denotes the midpoint of a concentration-inhibition curve. In general, CC50 refers to the concentration at which the toxic effect on the cells reaches its halfway point.
